According to publication PMC7932537, “Quantitative profiling of protease specificity” (PLoS Computational Biology, 2021):

Assays:
MMP-2 [1] = assay: Substrate phage display with NGS: relative probability (RP) of P3-P1' tetramer clusters; type: biochemical, human; conditions: MMP2;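 note: ratio of tetramer probability after protease selection to that in naive phage library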
MMP-9 = MMP-9 (Homo sapiens, UniProt P14780); assay: K(obs) of individual phage substrates (set of 1369); type: biochemical; conditions: MMP9
MMP-2 [2] = target: T1, MMP-2 (Homo sapiens, UniProt P08253); assay: as above; type: biochemical; conditions: MMP2
T1 sequence (P08253 110-660): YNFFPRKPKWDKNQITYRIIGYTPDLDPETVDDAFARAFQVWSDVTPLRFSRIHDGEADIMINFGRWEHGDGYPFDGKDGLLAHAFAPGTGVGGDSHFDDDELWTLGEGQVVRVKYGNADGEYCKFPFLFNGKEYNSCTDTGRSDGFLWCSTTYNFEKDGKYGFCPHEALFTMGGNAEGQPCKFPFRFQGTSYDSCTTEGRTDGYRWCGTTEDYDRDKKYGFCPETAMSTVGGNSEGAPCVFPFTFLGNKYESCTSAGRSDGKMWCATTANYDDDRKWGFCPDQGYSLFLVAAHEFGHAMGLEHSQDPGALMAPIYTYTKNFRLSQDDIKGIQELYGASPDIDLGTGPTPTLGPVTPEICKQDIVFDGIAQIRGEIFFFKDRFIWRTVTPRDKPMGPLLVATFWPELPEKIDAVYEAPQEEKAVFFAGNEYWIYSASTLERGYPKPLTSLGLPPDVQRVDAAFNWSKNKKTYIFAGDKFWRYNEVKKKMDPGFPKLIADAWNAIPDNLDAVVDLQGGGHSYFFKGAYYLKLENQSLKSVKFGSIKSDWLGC

[3] = RP of the P3-P1' tetramer contained in the substrate
[4] = individual phage substrate of the set of 1369 peptides, dash in the sequence marks the cleavage position
[5] = individual phage substrate of the set of 1369 peptides, cleavage position marked by '-'
[6] = RP of the P3-P1' tetramer contained in the substrate (substrate phage display with NGS)
[7] = individual phage substrates, set of 1369 peptides, hyphen in sequence marks cleavage position
[8] = individual phage substrates, set of 1369 peptides, cleavage position marked by hyphen in sequence

Sequence of MMP-9 (P14780 94-707): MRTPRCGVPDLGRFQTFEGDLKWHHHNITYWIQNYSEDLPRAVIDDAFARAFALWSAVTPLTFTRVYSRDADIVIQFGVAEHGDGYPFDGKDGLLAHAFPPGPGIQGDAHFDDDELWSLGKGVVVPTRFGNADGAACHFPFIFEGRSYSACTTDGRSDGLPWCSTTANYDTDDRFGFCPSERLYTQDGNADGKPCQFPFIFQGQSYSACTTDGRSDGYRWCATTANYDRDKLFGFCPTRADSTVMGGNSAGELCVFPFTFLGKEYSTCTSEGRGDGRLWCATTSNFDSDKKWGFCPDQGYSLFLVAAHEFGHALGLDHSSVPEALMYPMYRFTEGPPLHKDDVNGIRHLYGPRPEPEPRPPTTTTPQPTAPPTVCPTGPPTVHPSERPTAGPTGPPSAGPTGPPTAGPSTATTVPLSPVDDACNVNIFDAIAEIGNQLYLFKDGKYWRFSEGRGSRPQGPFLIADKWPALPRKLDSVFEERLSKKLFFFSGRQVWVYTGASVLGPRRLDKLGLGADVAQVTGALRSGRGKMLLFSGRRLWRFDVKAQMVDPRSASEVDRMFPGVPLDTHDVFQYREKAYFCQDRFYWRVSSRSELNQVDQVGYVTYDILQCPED

Substance | relative probability (RP) (MMP-2 [1]; [3]) | Kobs (MMP-9; [4]) | Kobs (MMP-2 [2]; [5]) | relative probability (RP) (MMP-2 [1]; [6]) | Kobs (MMP-9; [7]) | Kobs (MMP-2 [2]; [8])
KSPVF-LTASG | 21.7568 | 6688.74 M⁻¹ s⁻¹ | 9740.44 M⁻¹ s⁻¹ |  |  | 
GRLRN-LVTAS | 27.1336 | 1925.41 M⁻¹ s⁻¹ | 5461.43 M⁻¹ s⁻¹ |  |  | 
GVYQG-LRTAS | 4.332 | 799.117 M⁻¹ s⁻¹ | 1373.05 M⁻¹ s⁻¹ |  |  | 
GVVRG-LSTAS | 29.092 | 4613.14 M⁻¹ s⁻¹ | 9740.44 M⁻¹ s⁻¹ |  |  | 
TSPVA-LTASG | 34.2983 | 12792.1 M⁻¹ s⁻¹ | 12792.1 M⁻¹ s⁻¹ |  |  | 
SQVRF-LTASG | 15.0438 | 6688.74 M⁻¹ s⁻¹ | 8321.48 M⁻¹ s⁻¹ |  |  | 
RPPLA-FTASG | 31.4142 | 12792.1 M⁻¹ s⁻¹ | 7386.83 M⁻¹ s⁻¹ |  |  | 
GHARS-LKTAS |  |  |  | 17.186 | 1239.69 M⁻¹ s⁻¹ | 2916.17 M⁻¹ s⁻¹
GSGRA-MYGTT | 2.5449 | 2476.66 M⁻¹ s⁻¹ | 1513.13 M⁻¹ s⁻¹ |  |  | 
GLGLN-LTASG |  |  |  | 0.5789 | 231.616 M⁻¹ s⁻¹ | 355.093 M⁻¹ s⁻¹
SGPAR-LISTA |  |  |  | 34.9166 | 12792.1 M⁻¹ s⁻¹ | 12792.1 M⁻¹ s⁻¹
GSAVG-LRTAS | 28.9998 | 5667.28 M⁻¹ s⁻¹ | 12792.1 M⁻¹ s⁻¹ |  |  | 
TTPYH-ITASG | 15.3574 | 12792.1 M⁻¹ s⁻¹ | 4922.1 M⁻¹ s⁻¹ |  |  | 
KSPSL-YTASG | 18.1013 | 5090.5 M⁻¹ s⁻¹ | 4335.13 M⁻¹ s⁻¹ |  |  | 
YVPTG-LTASG | 33.1098 | 4763.33 M⁻¹ s⁻¹ | 5461.43 M⁻¹ s⁻¹ |  |  | 
TKYAY-ITASG |  |  |  | 1.709 | 0 M⁻¹ s⁻¹ | 0 M⁻¹ s⁻¹
RQLAH-ITASG |  |  |  | 25.9365 | 27.918 M⁻¹ s⁻¹ | 10866.7 M⁻¹ s⁻¹
GTLMG-LYTAS | 28.5499 | 171.876 M⁻¹ s⁻¹ | 7015.91 M⁻¹ s⁻¹ |  |  | 
MVPKW-LTASG | 29.287 | 10866.7 M⁻¹ s⁻¹ | 7815.03 M⁻¹ s⁻¹ |  |  | 

Substance | relative probability (RP) (MMP-2 [1]; [3]) | Kobs (MMP-9; [4]) | Kobs (MMP-2 [2]; [5]) | relative probability (RP) (MMP-2 [1]; [6]) | Kobs (MMP-9; [7]) | Kobs (MMP-2 [2]; [8])
RNGLA-LTASG |  |  |  | 0.6848 | 0 M⁻¹ s⁻¹ | 0 M⁻¹ s⁻¹
SGALH-LKATA |  |  |  | 14.6488 | 6688.74 M⁻¹ s⁻¹ | 4205.91 M⁻¹ s⁻¹
ERIYA-LTASG |  |  |  | 6.967 | 7386.83 M⁻¹ s⁻¹ | 2687.73 M⁻¹ s⁻¹
QSPRM-LTASG | 30.5973 | 10866.7 M⁻¹ s⁻¹ | 10866.7 M⁻¹ s⁻¹ |  |  | 
GQARG-LQTAS | 25.9476 | 1660.66 M⁻¹ s⁻¹ | 3253.29 M⁻¹ s⁻¹ |  |  | 
GAFRH-LRTAS | 3.942 | 0 M⁻¹ s⁻¹ | 201.585 M⁻¹ s⁻¹ |  |  | 
PSWRA-LTASG | 22.4074 | 4470.66 M⁻¹ s⁻¹ | 10866.7 M⁻¹ s⁻¹ |  |  | 
WDALG-ITASG | 18.2164 | 2097.28 M⁻¹ s⁻¹ | 3850.82 M⁻¹ s⁻¹ |  |  | 
SGVFW-MRGTA |  |  |  | 10.3215 | 5461.43 M⁻¹ s⁻¹ | 3438.54 M⁻¹ s⁻¹
ERFSH-LTASG | 16.5216 | 231.616 M⁻¹ s⁻¹ | 2344.36 M⁻¹ s⁻¹ |  |  | 
SGPYT-LVMTA |  |  |  | 16.827 | 8321.48 M⁻¹ s⁻¹ | 517.582 M⁻¹ s⁻¹
GRVYD-LKTAS |  |  |  | 1.244 | 2761.81 M⁻¹ s⁻¹ | 585.336 M⁻¹ s⁻¹
WPMAK-LTASG | 21.5229 | 451.441 M⁻¹ s⁻¹ | 12792.1 M⁻¹ s⁻¹ |  |  | 
KWVSM-LTASG |  |  |  | 23.0821 | 1870.4 M⁻¹ s⁻¹ | 12792.1 M⁻¹ s⁻¹
GWVSY-LKTAS |  |  |  | 20.2936 | 0 M⁻¹ s⁻¹ | 9740.44 M⁻¹ s⁻¹
YKPAG-LTASG |  |  |  | 36.0156 | 12792.1 M⁻¹ s⁻¹ | 10866.7 M⁻¹ s⁻¹
GCVRF-LQTAS | 15.0438 | 1071.29 M⁻¹ s⁻¹ | 1239.69 M⁻¹ s⁻¹ |  |  | 
NRVEM-LTASG | 2.124 | 0 M⁻¹ s⁻¹ | 261.974 M⁻¹ s⁻¹ |  |  | 
GWAYN-MRTAS |  |  |  | 10.8408 | 2280.5 M⁻¹ s⁻¹ | 292.668 M⁻¹ s⁻¹

Substance | relative probability (RP) (MMP-2 [1]; [3]) | Kobs (MMP-9; [4]) | Kobs (MMP-2 [2]; [5]) | relative probability (RP) (MMP-2 [1]; [6]) | Kobs (MMP-9; [7]) | Kobs (MMP-2 [2]; [8])
TFARS-LTASG |  |  |  | 17.186 | 5889.62 M⁻¹ s⁻¹ | 8941.32 M⁻¹ s⁻¹
GLPTA-LRTAS |  |  |  | 32.8941 | 5667.28 M⁻¹ s⁻¹ | 12792.1 M⁻¹ s⁻¹
VKPWA-LTASG | 31.9211 | 10866.7 M⁻¹ s⁻¹ | 5667.28 M⁻¹ s⁻¹ |  |  | 
PAYFP-LTASG | 0.1432 | 0 M⁻¹ s⁻¹ | 0 M⁻¹ s⁻¹ |  |  | 
SGVRF-LKGTA |  |  |  | 15.0438 | 12792.1 M⁻¹ s⁻¹ | 5269.78 M⁻¹ s⁻¹
YLVRY-LTASG |  |  |  | 18.3724 | 12792.1 M⁻¹ s⁻¹ | 9740.44 M⁻¹ s⁻¹
GVLRM-LSTAS | 9.0498 | 951.362 M⁻¹ s⁻¹ | 0 M⁻¹ s⁻¹ |  |  | 
SEWQG-LTASG | 12.939 | 690.17 M⁻¹ s⁻¹ | 1711.63 M⁻¹ s⁻¹ |  |  | 
RLANN-LTASG | 18.8719 | 484.315 M⁻¹ s⁻¹ | 5461.43 M⁻¹ s⁻¹ |  |  | 
FDISH-LTASG |  |  |  | 30.7015 | 171.876 M⁻¹ s⁻¹ | 10866.7 M⁻¹ s⁻¹
SLFLH-MTASG |  |  |  | 0.2069 | 0 M⁻¹ s⁻¹ | 142.481 M⁻¹ s⁻¹
RGPYH-LTASG |  |  |  | 27.2418 | 12792.1 M⁻¹ s⁻¹ | 12792.1 M⁻¹ s⁻¹
SGGSG-LRIGL | 1.9698 | 201.585 M⁻¹ s⁻¹ | 12792.1 M⁻¹ s⁻¹ |  |  | 
TVTQN-LTASG | 7.238 | 0 M⁻¹ s⁻¹ | 1327.88 M⁻¹ s⁻¹ |  |  | 
SQPHL-LTASG |  |  |  | 16.4802 | 2097.28 M⁻¹ s⁻¹ | 1816.46 M⁻¹ s⁻¹
GRPRG-LTTAS | 35.2511 | 12792.1 M⁻¹ s⁻¹ | 12792.1 M⁻¹ s⁻¹ |  |  | 
ISWLN-LTASG |  |  |  | 0.1218 | 386.839 M⁻¹ s⁻¹ | 1112.44 M⁻¹ s⁻¹
HTSNW-LTASG | 9.68 | 451.441 M⁻¹ s⁻¹ | 3079.62 M⁻¹ s⁻¹ |  |  | 
PGPES-LTASG |  |  |  | 26.0767 | 12792.1 M⁻¹ s⁻¹ | 10866.7 M⁻¹ s⁻¹
